Assay results: US20160024535A1, “ELECTROCHEMICAL DETOXIFICATION METHOD OF WOOD-BASED HYDROLYSATE FOR PRODUCING BIOCHEMICALS OR BIOFUELS, AND DETOXIFIED WOOD-BASED HYDROLYSATE” (Korea Institute of Science and Technology, priority 2013, published 2016)

Assays:
[1] = Electrochemical treatment of medium, removal rate of phenolic and furanic compounds; type: physicochemical; settings: 0.5 g/L added to medium; for Removal rate: wt %
Description: In order to measure the removal rate of phenolic and furanic compounds, p-coumaric acid, ferulic acid, syringaldehyde and vanillin were selected as phenolic compounds and furfural and 5-hydroxymethylfurfural were selected as furanic compounds. After adding 0.5 g/L of each of the selected 6 inhibitors to a medium, electric current was flown at each optimum oxidation voltage and then removal rate was measured.
(§1) A potentiostat (WonA Tech, WMPG 1000) was used for the electrochemical treatment of the medium. Graphite felt was used as an electrode. Specifically, the electrochemical treatment was conducted for by 5 hours at an oxidation peak voltage of each fermentation inhibitor (800 mV for coumaric acid and ferulic acid, 2 V for syringaldehyde and vanillin, 1.8 V for furfural and 5-hydroxyfurfural). Then, the fermentation inhibitors were removed using such methods as gravitational sedimentation, centrifugation, membrane separation, etc. The percentage of the removal rate is wt %.
(§2) After the culturing was completed, the concentrations of phenolic and furanic compounds, sugars and acetic acid were measured for each culture. The concentration was analyzed by liquid chromatography (Agilent model 1200). The phenolic compounds were analyzed using a diode array detector and a Zorbax eclipse XDB-C18 column (150×4.6 mm, 3.5 μm). The sugars and acetic acid were analyzed using a refractive index detector and an Aminex HPX-87H column (300×7.8 mm). The growth of the microorganisms was analyzed by measuring absorbance at 600 nm with a spectrophotometer (UVmini-1240, Shimadzu). The concentration of butyric acid and butanol was analyzed using a gas chromatography system (Agilent technology 6890N Network GC system) equipped with a flame ionized detector and an HP-INNOWax column (30 m×250 μm×0.25 μm, Agilent Technologies).

[2] = Cyclic voltammetry, oxidation peak voltage; type: physicochemical
Description: First, the optimum voltage for removing each phenolic compound through the electrochemical treatment was determined by cyclic voltammetry. […] In FIG. 1, the abscissa represents voltage (V) and the ordinate represents current (A). […] This means that each of the phenolic compounds is removed by oxidation at the intrinsic voltage.
as §1

[3] = system: Clostridium beijerinckii; assay: Production of butanol by Clostridium beijerinckii; type: cell-based; settings: 0.5 g/L in medium, after electrochemical treatment, FIG. 5
Source text: (§3) As a butyric acid fermentation medium, a medium containing 20 g of glucose, 5 g of yeast extract, 0.2 g of magnesium sulfate, 0.01 g of manganese sulfate, 0.01 g of ferric sulfate, 0.01 g of sodium chloride, 0.5 g of monopotassium phosphate (KH2PO4), 0.5 g of dipotassium phosphate (K2HPO4) and 2 g of ammonium acetate per 1 L of the medium was used. As a butanol fermentation medium, a medium containing 20 g of glucose, 1 g of yeast extract, 0.2 g of magnesium sulfate, 0.01 g of manganese sulfate, 0.01 g of ferric sulfate, 0.01 g of sodium chloride, 0.5 g of monopotassium phosphate (KH2PO4), 0.5 g of dipotassium phosphate (K2HPO4) and 2 g of ammonium acetate per 1 L of the medium was used. Each medium was gas-substituted with argon gas and sterilized at 121° C. for 15 minutes before the experiment. […]
as §2, with “The concentration of butyric acid and butanol was analyzed using a gas chromatography system (Agilent technology 6890N Network GC system) equipped with a flame ionized detector and an HP-INNOWax column (30 m×250 μm×0.25 μm, Agilent Technologies).” left out

[4] = system: Clostridium tyrobutyricum; assay: Cellular growth of Clostridium tyrobutyricum (absorbance at 600 nm); type: cell-based; settings: 0.5 g/L in medium, before electrochemical treatment, FIG. 2, read-out: inhibition of the growth of the microorganisms
Source text: as §3
as §2, with “The concentration of butyric acid and butanol was analyzed using a gas chromatography system (Agilent technology 6890N Network GC system) equipped with a flame ionized detector and an HP-INNOWax column (30 m×250 μm×0.25 μm, Agilent Technologies).” left out

[5] = system: Clostridium tyrobutyricum; assay: Production of butyric acid by Clostridium tyrobutyricum; type: cell-based; settings: 0.5 g/L in medium, after electrochemical treatment at optimum voltage, FIG. 3
Source text: as §3
as §2, with “The concentration of butyric acid and butanol was analyzed using a gas chromatography system (Agilent technology 6890N Network GC system) equipped with a flame ionized detector and an HP-INNOWax column (30 m×250 μm×0.25 μm, Agilent Technologies).” left out

[6] = 1st treatment, 5 hours at oxidation peak voltage

Row | Compound | Post-treatment concentration [1, 6] [g/L] | Removal rate [1, 6] [%] | Post-treatment concentration ([1]; 2nd treatment) [g/L] | Removal rate ([1]; 2nd treatment) [%] | oxidation peak voltage [2] | decrease in butanol production recovered by the electrochemical treatment [3] [%] | inhibition at 500 µg/mL [4] [%] | toxicity reduced by the electrochemical treatment [5] [%]
1 | COc1cc(/C=C/C(=O)O)ccc1O [Ferulic acid, ferulic acid] | 0.3475 | 30.5 | 0.1155 | 76.9 | 800 mV | – | – | –
2 | O=Cc1ccco1 [Furfural, furfural] | 0 | 100 | 0 | 100 | 1.8 V | – | – | –
3 | O=C(O)/C=C/c1ccc(O)cc1 [p-Coumaric acid, p-coumaric acid] | 0.25 | 50.0 | 0.11 | 78.0 | 800 mV | ~100 | ~100 | ~100
4 | O=Cc1ccc(CO)o1 [HMF, 5-hydroxymethylfurfural] | 0 | 100 | 0 | 100 | 1.8 V | – | – | –
5 | COc1cc(C=O)cc(OC)c1O [Syringaldehyde, syringaldehyde] | 0.109 | 78.2 | 0.0265 | 94.7 | 2 V | – | – | –
6 | COc1cc(C=O)ccc1O [Vanillin, vanillin] | 0.251 | 49.8 | 0.089 | 82.2 | 2 V | – | – | –
